“Also recorded” adds a separate entry of the source. No end group written: not given here.
Legend:
[1] = system: islets isolated from 10-week-old BTBR lean and Ob mice; assay: Mouse islet glucose-stimulated insulin secretion (GSIS) assay; assay type: cell-based; conditions: for effect on GSIS from islets obtained from diabetic BTBR mice: diabetic (ob/ob) BTBR islets; for effect on GSIS from islets obtained from diabetic BTBR mice / effect on GSIS from islets obtained from non-diabetic mice: 16.7 mM glucose, PGE1 5 μM or L-798,106 20 μM, 1 hour static incubation; for effect on GSIS from islets obtained from non-diabetic mice: non-diabetic (lean) BTBR islets
Procedure: Mouse Islet Isolation & Culture. Intact pancreatic islets were isolated from 10-12-week-old BTBR lean and ob/ob mice using a known collagenase digestion protocol (Rabaglia et al., Am. J. Physiology Endo. Metab. 289:E218-224 (2005)). Instead of CO2 asphyxiation and decapitation, mice were Avertin-anesthetized and exsanguinated immediately prior to cannulation of the bile duct and inflation of the pancreas with a collagenase solution. Islets were cultured overnight in 5 ml RPMI 1640 containing 11.1 mM glucose and 10% heat-inactivated FBS with 1X penicillin/streptomycin prior to in vitro assay for insulin secretion and PGE2 production.
Mouse Islet Insulin Secretion and PGE2 Production Assays. Insulin secretion assays were performed in mesh-bottomed glass tubes essentially as in Rabaglia et al. (2005). Modifications include: 4 islets/replicate were picked into Krebs Ringer Bicarbonate Buffer (KRBB) containing 1.7 mM glucose and 0.25% BSA. Replicates were pre-incubated for 1 hour in fresh 1.7 mM KRBB before being transferred to stimulation medium containing the desired concentrations of glucose and drug treatment (e.g., PGE1, PGE2, and sulprostone [Sigma Aldrich] or L-798,106 [Tocris]). Insulin secretion as a percentage of total insulin content was determined using an in-house insulin ELISA, as described above.
As a first step in testing their hypothesis that the EP3 signaling pathway contributes to the pathophysiology of T2D, the Inventors subjected islets isolated from 10-week-old BTBR lean and Ob mice to treatment with a selective agonist (PGE1) or specific antagonist (L-798,106) of the EP3 receptor to monitor the impact on GSIS. Briefly, mouse islets were incubated in medium containing 1.7 mM glucose (non-stimulatory towards insulin secretion) or 16.7 mM glucose (stimulatory towards insulin secretion), with and without the addition of 5 μM PGE1 or 20 μM L-798,106.
GLP-1-based therapies are used in T2D therapy. To test the possibility that EP3 antagonism can augment the effect of GLP-1 agonism, islets from diabetic BTBR mice were treated with stimulatory glucose, with and without the addition of 50 nM GLP-1 and/or 10 μM […], and the level of insulin secretion monitored (FIG. 9).

Ins-1 832/3 cells = assay: INS1 cell insulin secretion assay; assay type: cell-based, rat; conditions: for minimum dose yielding maximum effect on GSIS inhibition: 2 hour stimulation
Procedure: INS1 Cell Culture and Insulin Secretion Assays. The glucose responsive rat beta cell line, INS1 (832/3) was cultured in RPMI 1640 (11.1 mM glucose) supplemented with NaHCO3, HEPES, heat-inactivated FBS, L-glutamine, sodium pyruvate and β-mercaptoethanol. 3 days prior to assay, 1×10^5 cells were plated per well in 96-well cell culture plates. Twenty-four hours prior to the assay, the medium was aspirated and fresh growth medium added. On the day of the assay, confluent Ins-1 832/3 cells were washed once with sterile PBS and pre-incubated for 2 hours in KRBB supplemented with 25 mM HEPES and containing 1.7 mM glucose and 0.2% BSA. Cells were then stimulated for 2 hours with KRBB containing 16.7 mM glucose and the desired concentrations of agonists/antagonists. Secretion buffer was collected and the secreted and cellular insulin content determined by acid/ethanol extraction, as described above.
Insulin secretion assays in Ins-1 832/3 cells were performed wherein the dose of PGE2 (a physiological agonist of EP3) or sulprostone (an EP3-selective agonist) were varied over a wide concentration range. […] The minimum dose of sulprostone yielding maximum effect on GSIS inhibition was approximately 10 nM and the minimum dose of PGE2 was approximately 50 nM.

[2] = diabetic patients treated with sitagliptin; cited from earlier work
[3] = system: human islets from non-diabetic or T2D cadaveric donors; assay: Human islet insulin secretion assay; assay type: cell-based
Procedure: Human Islet Culture and Insulin Secretion Assays. Human islets were obtained through the Integrated Islet Distribution Program. On the day of arrival, islets were cultured overnight in RPMI containing 8 mM glucose, 10% heat-inactivated FBS, and 1X penicillin/streptomycin to confirm viability and sterility. Islets were cultured in 6 cm Petri dishes with approximately 1000 islet equivalents plated per dish. Islets were hand-picked and incubated an additional day in medium containing the desired concentration of glucose and/or xylitol before assaying for insulin secretion. Insulin secretion assays on human islets were performed identically to those described for mouse islets, except that 10 islets were used per replicate instead of 4.
Non-diabetic and T2D human islets were cultured for 48 hours in 8 mM glucose. A subset of the non-diabetic donor islets were also incubated with 0.5 mM xylitol, a glucose analog that is non-metabolizable beyond glucose-6 phosphate, during the final 24 hour culture period. […] Xylitol activates the FoxO1 transcription factor via glucose-6 phosphate formation, providing an alternative mechanism for up-regulating gene expression. Following 48 hours in culture, cellular insulin secretion was stimulated for 45 minutes with 16.7 mM glucose in the absence and presence of 10 μM L-798,106. Secreted insulin was normalized to total insulin content in order to determine the fractional release of insulin. Data from each human islet set was normalized to its own response in 16.7 mM glucose alone to isolate the effect of L-798,106 on GSIS (FIG. 6).

Molecule: glucagon-like peptide 1 (HAEGTFTSDVSSYLEGQAAKEFIAWLVKGR; ends and bridges not checked; UniProt P01275 98-127, looked up) [GLP-1, hormone glucagon-like peptide 1]
- effect of GLP-1 alone on insulin secretion from diabetic BTBR islets ([1]; diabetic BTBR islets, 11.1 mM glucose, GLP-1 50 nM): significant impact on insulin secretion

Molecule: CS(=O)(=O)NC(=O)CCC/C=C\C[C@H]1C(=O)C[C@@H](O)[C@@H]1/C=C/[C@@H](O)COc1ccccc1 [sulprostone]
- minimum dose yielding maximum effect on GSIS inhibition (Ins-1 832/3 cells; 16.7 mM glucose): approximately 10 nM

Molecule: N[C@@H](CC(=O)N1CCn2c(nnc2C(F)(F)F)C1)Cc1cc(F)c(F)cc1F [sitagliptin]
- diabetic patients who fail to achieve HbAlc target of <7% [2]: 35-60%

Molecule: CCCCC[C@H](O)/C=C/[C@H]1[C@H](O)CC(=O)[C@@H]1CCCCCCC(=O)O [PGE1]
- effect on GSIS from islets obtained from diabetic BTBR mice [1]: significantly altered insulin secretion; also recorded: reduced GSIS
- effect on GSIS from islets obtained from non-diabetic mice [1]: had no effect

Molecule: CCCCC[C@H](O)/C=C/[C@H]1[C@H](O)CC(=O)[C@@H]1C/C=C\CCCC(=O)O [PGE2]
- IC50 (Ins-1 832/3 cells; 16.7 mM glucose, 2 hour static incubation, read-out: approximate IC50 for suppression of insulin secretion): ~0.01 µM
- minimum dose yielding maximum effect on GSIS inhibition (Ins-1 832/3 cells; 16.7 mM glucose): approximately 50 nM
- maximal reduction in insulin secretion (Ins-1 832/3 cells; 16.7 mM glucose, increasing concentrations, 2 hour static incubation): ~80%
- inhibition of GSIS (dose dependence) (Ins-1 832/3 cells; 16.7 mM glucose, wide concentration range): dose-dependently suppresses insulin secretion; also recorded: dose-dependently inhibited GSIS

Molecule: COc1ccc(Br)cc1S(=O)(=O)NC(=O)/C=C/c1ccccc1Cc1ccc2ccccc2c1 [L-798,106, (2E)-N-[(5-bromo-2-methoxyphenyl)sulfonyl]-3-[2-(2-naphthalenylmethyl)phenyl]-2-propenamide]
- effect on GSIS from islets obtained from diabetic BTBR mice [1]: significantly altered insulin secretion; also recorded: enhanced GSIS
- effect on GLP-1 dependent insulin secretion from diabetic BTBR islets ([1]; diabetic BTBR-ob/ob islets, 11.1 mM glucose, GLP-1 50 nM plus L-798,106 10 μM): augments GLP-1 dependent insulin secretion
- effect on GSIS from islets obtained from non-diabetic mice [1]: had no effect on GSIS
- effect on insulin secretion from diabetic (T2D) human islets ([3]; T2D donor islets, 16.7 mM glucose, L-798,106 20 μM / 10 μM, 45 minute static incubation): can enhance insulin secretion; also recorded: differed significantly from responses of non-diabetic islets
- effect on insulin secretion from non-diabetic human islets ([3]; non-diabetic donors 5-7, cultured in 8 mM glucose, 16.7 mM glucose stimulation, 45 minute static incubation): non-responsive
- effect on insulin secretion from xylitol-incubated non-diabetic human islets ([3]; non-diabetic donors 5-7 incubated overnight in 8 mM glucose with 0.5 mM xylitol, 16.7 mM glucose stimulation, 45 minutes): effective to promote glucose dependent insulin secretion; also recorded: differed significantly from responses of non-diabetic islets
- EC50 (Ins-1 832/3 cells; Rattus norvegicus, INS1, in the presence of 50 nM PGE2 (maximal inhibitory concentration), 16.7 mM glucose, 2 hour static incubation, read-out: approximate EC50 for restoring insulin secretion): ~0.1 µM
- reversal of sulprostone-dependent suppression of GSIS (Ins-1 832/3 cells; in the presence of 10 nM sulprostone, stimulatory glucose, dose response of L-798,106): reversed in a dose-dependent manner
- reversal of PGE2-dependent suppression of insulin secretion (Ins-1 832/3 cells; in the presence of 50 nM PGE2, increasing concentrations of L-798,106, 16.7 mM glucose): restored maximal insulin secretion; also recorded: reversed in a dose-dependent manner

— US9381176B2, “E-prostanoid receptor, Ptger3, as a novel anti-diabetic therapeutic target” (Wisconsin Alumni Research Foundation, priority 2012, dated 2016)
